Assays:
[1] = system: adult human bone marrow CD34+ cells; assay: Colony-forming cell (CFC) assay in methylcellulose; assay type: cell-based; conditions: for Total Number Colonies/plate / BFU-E / CFU-GM / CFU-Mix: cells after 9 days with cytokines, mean of 2 ± SEM; for BFU-E / CFU-GM / CFU-Mix: colonies/plate; for BFU (BFU-E colonies) / GM (CFU-GM colonies) / Mix (CFU-Mix colonies) / Total (colonies): mean of 3 experiments, 1000 unfractionated cells/plate after 9 days of culture, day 14; for Clonogenic potential: total colonies/number of cells plated×100; for Plating Efficiencies: total number of hematopoietic colonies/total cells plated × 100
Method: Colony-forming cells (CFC) were assayed under standard conditions in semisolid media as previously described (Brandt et al., Blood 94:106-113, 1999). Briefly 1×10^3 primary CD34^+ cells or unfractionated cultured cells exposed to different conditions used following 9 days of culture were plated in duplicate cultures containing 1 ml IMDM with 1.1% methylcellulose, 30% FBS, 5×10^−5 M 2-mercaptoethanol (Methocult, Stem Cell Technologies, Vancouver, BC, Canada), and a cocktail of growth factors including 100 ng/ml of SCF, 5 U/mL of EPO, 50 ng/mL of IL-3, 50 ng/mL of IL-6 and 50 ng/mL of G-CSF (Amgen Inc., Thousand Oaks, Calif.). The cells were plated into 35 mm tissue-culture dishes (Costar), and after 14 days of incubation at 37° C. in a 100%-humidified atmosphere containing 5% CO2, the colonies were scored with an inverted microscope following standard criteria (Breems et al., Leukemia, 8:1095-1104, 1994).

[2] = system: adult human bone marrow CD34+ cells; assay: Cobblestone area-forming cell (CAFC) assay in limiting dilution; assay type: cell-based; conditions: for CAFC/10,000 Cells: after 9 days of culture, unfractionated, cobblestone areas counted after 5 weeks
Method: The ability of primitive HSC to form cobblestone areas (CA) in long term marrow cultures has been used as an in vitro surrogate progenitor HSC assay (Breems et al., Leukemia, 8:1095-1104, 1994, Lefkovits et al., Immunol. Today, 5:265-268, 1984; Cross et al., Curr. Opin. Genet. Dev., 5:609-613, 1997). CD34^+ cells after 9 days of culture from each condition were plated in limiting dilution in flat-bottomed 96-well plates (Costar) onto confluent, irradiated (7000cGy) monolayers of the murine stromal fibroblast line M2-10B4 (a gift from Dr. C. Eaves, Vancouver, BC, Canada). Each well contained 200 μL of a 50:50 mixture of IMDM and RPMI with 10% FBS. A cocktail of growth factors, including 100 ng/mL SCF, 100 ng/mL leukemia inhibitory factor (LIF), 50 ng/mL IL-3, 50 ng/mL IL-6 and 50 ng/mL granulocyte-monocyte colony stimulating factor (GM-CSF) (Amgen, Thousand Oaks, Calif.).
The cultures were fed weekly by replacement of one half of the culture volume with fresh medium containing the above cytokines at 2 times the previously defined concentration. After 5 weeks of culture in a humidified incubator at 37° C. containing 5% CO2, the number of CA were ennumerated. The CAFC frequency was computed by means of minimization of chi regression to the cell number at which 37% of wells were negative for CA formation, with 95% statistical precision using L-Calc (Limiting dilution calculation) software (Stem Cell Inc., Vancouver, Canada; Lefkovits et al., Curr. Opin. Genet. Dev. 5:609-613, 1997).

NOD/SCID mice [3] = assay: Marrow repopulation assay of human cell grafts in NOD/SCID mice; assay type: in vivo; conditions: cells after 9 days of culture with cytokines; 7 weeks
Method: A colony of immunodeficient nonobese diabetic/ltsz-scid/scid (NOD/SCID) mice were purchased from the Jackson Laboratories (Bar Harbor, Me.) and were maintained as previously described (Coneallt et al., Proc. Nat'l Acad. Sci. USA, 94:9836-41, 1997). All NOD/SCID mice were kept under sterile conditions in the microisolator cages and were provided with autoclaved food and acidified water.
Mice were given 300cGy of total body gamma irradiation and human grafts were injected via the tail vein. Cytokines including SCF, IL-3 and GM-CSF at 5 ug/mouse were injected intraperitoneally on alternate days following injection of human grafts during the first week of transplant. Sulfamethoxazole (40 mg/mL) and Trimethoprim (8 mg/mL)(SMX/TMZ; Elkins-Sinn, Cherry Hill, N.J.) were added in the drinking water for 3 days post injection and then subsequently for 3 days beginning the second week of transplant. Mice were sacrificed after 7 weeks. Femurs and tibias were flushed with Hank's balanced salt solution (HBSS) (Biowhittiker) with 2% FBS (Hyclone) and 0.02% sodium azide and cell counts performed. […] Marrow cells were analyzed by flow cytometry to detect human cell engraftment as previously described.^29 Briefly to quantitate the total number of human cells present an aliquot of cells was stained with anti-CD45-FITC(BD) and anti-CD71-FITC(BD). […]

NOD/SCID mice [4] = assay: Hematopoietic colonies cloned from NOD/SCID mouse marrow 7 weeks after human grafts; assay type: in vivo; conditions: for Estimated Number of Human Colonies: % human cells multiplied by total number of colonies; for % Human Cells: pooled colonies stained for human CD45/CD33, grafts 7 weeks earlier
Method: After 7 weeks of passage in vivo of human grafts in NOD/SCID mice, marrow cells from mice were then plated in methylcellulose assays at 100,000 cells/plate as previously described. After 14 days of incubation the number of hematopoietic colonies were enumerated.
Mice were given 300cGy of total body gamma irradiation and human grafts were injected via the tail vein. Cytokines including SCF, IL-3 and GM-CSF at 5 ug/mouse were injected intraperitoneally on alternate days following injection of human grafts during the first week of transplant. Sulfamethoxazole (40 mg/mL) and Trimethoprim (8 mg/mL)(SMX/TMZ; Elkins-Sinn, Cherry Hill, N.J.) were added in the drinking water for 3 days post injection and then subsequently for 3 days beginning the second week of transplant. Mice were sacrificed after 7 weeks. Femurs and tibias were flushed with Hank's balanced salt solution (HBSS) (Biowhittiker) with 2% FBS (Hyclone) and 0.02% sodium azide and cell counts performed. Cells were preincubated with 1 mg/ml of human gamma globulin in staining to block human Fc receptors. Murine Fc receptors were blocked by a second incubation of the cells in 2.4G2 (an anti-mouse Fc receptor moAb). Marrow cells were analyzed by flow cytometry to detect human cell engraftment as previously described.^29 Briefly to quantitate the total number of human cells present an aliquot of cells was stained with anti-CD45-FITC(BD) and anti-CD71-FITC(BD). This aliquot was also stained with anti-CD19-PE(BD) and cyanine-5-succinimidyl-labeled anti-CD34 (BD). After 7 weeks, marrow cells were plated in methylcellulose as previously described. Colonies from these CFC were then pooled and stained with moAb against CD33 and CD45 (BD) to assess the presence of human cells.

SMILES | Total Number Colonies/plate [1] | BFU-E [1] | CFU-GM [1] | CFU-Mix [1] | BFU (BFU-E colonies) [1] | GM (CFU-GM colonies) [1] | Mix (CFU-Mix colonies) [1] | Total (colonies) [1] | Clonogenic potential [1] [%] | Plating Efficiencies [1] | fold increase in the number of CAFC over the primary cells ([2]; 9 days with cytokines) [fold] | CAFC/10,000 Cells [2] | marrow repopulating activity: engraftment and multilineage differentiation (NOD/SCID mice [3]) | Estimated Number of Human Colonies (NOD/SCID mice [4]) | secondary hematopoietic colonies from marrow of grafted mice (NOD/SCID mice [4]; plated in semisolid media with human cytokines) | % Human Cells (NOD/SCID mice [4]) [%] | numbers of CAFC relative to cytokines alone ([2]; 9 days with cytokines)
Nc1ncn([C@H]2C[C@H](O)[C@@H](CO)O2)c(=O)n1 [5azaD, 5-aza2′deoxycitidine] | 97.8 ± 11.1 | 4 ± 1.5 | 73.0 ± 0.25 | 20.8 ± 9.3 | 5 | 52 | 27 | 84 | 8.4 | 9.8 ± 1.1 | 1.9 | 96 CAFC/10,000 cells | retained the ability to engraft NOD/SCID mice | 9 | formed significant numbers of secondary hematopoietic colonies | 12 | –
CC(/C=C/C(=O)NO)=C\[C@@H](C)C(=O)c1ccc(N(C)C)cc1 [TSA, Trichostatin A] | 14.3 ± 8.1 | 0.0 | 13 ± 6.6 | 1.3 ± 0.8 | 0 | 3 | 0 | 3 | 0.3 | 1.4 ± 0.8 | – | 16 CAFC/10,000 cells | no longer possessed such marrow repopulating activity | 0 | – | 0 | comparable numbers of CAFC as cultures receiving cytokines alone
